In brackets after ≈: the same amount, converted by molar mass.

What all share (format): biochemical, Staphylococcus aureus
The target of assay [1] is T1, β‐lactamase N1.
T1 construct: gene rnjB
Briefly: nitrocefin hydrolysis assay, purified mutant enzyme.

Assay [2] has as its target T1, β‐lactamase N1. Briefly: nitrocefin hydrolysis assay, purified recombinant enzyme.
Assay [3] concerns the target T1, β‐lactamase N1. The assay can be described thus: nitrocefin hydrolysis assay, purified mutant enzyme. The source holds these as a separate data set.

For orientation: IC50 means the concentration that gives 50% inhibition. Take `O=C(O[C@@H]1Cc2c(O)cc(O)cc2O[C@@H]1c1cc(O)c(=O)c2c(O)c(O)cc([C@H]3Oc4cc(O)cc(O)c4C[C@H]3OC(=O)c3cc(O)c(O)c(O)c3)c2c1)c1cc(O)c(O)c(O)c1` [TFDG, Theaflavin‐3,3´‐digallate]: the IC50 is 30.13 µg/mL (≈ 34.7 µM) in assay [1], 5.82 µg/mL in assay [2] and 28.91 µg/mL (≈ 33.3 µM) in assay [3].

The record behind these values is paper PMC6787515 (Journal of Cellular and Molecular Medicine, 2019).
